Measured values: patent US10829520B2, “Beta-hairpin peptidomimetics” (POLYPHOR AG, priority 2015, dated 2020)
Where a SMILES comes first, the peptide text is derived from it. Bridges are numbered along the chain shown (N, C = ends). [ ]: non-standard residue; d: D form. The star is where a group is joined. NαAmidinoTrp = N=C(N)N[C@@H](Cc1c[nH]c2ccccc12)C(=O)*; X2 = CN(C)C(=N[C@@H](Cc1c[nH]c2ccccc12)C(=O)*)N(C)C; Ala(cPent) = N[C@@H](CC1CCCC1)C(=O)O; dHyp = O=C(O)[C@H]1C[C@H](O)CN1; dDab = NCC[C@@H](N)C(=O)O; Orn = NCCC[C@H](N)C(=O)O; Dab = NCC[C@H](N)C(=O)O; Dap = NC[C@H](N)C(=O)O

How the values were obtained:
Type in all cases: cell-based
[1] = system: human red blood cells (hRBC); assay: Hemolysis of human red blood cells; settings: red cells of human, 1 h, 100 μg/mL
Outline: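 Washed fresh human erythrocytes (20% v/v, ~0.9×10^9 cells/mL final) were incubated with peptides at 100 μg/mL for 1 h at 37 °C with shaking. Supernatant OD540 measured; hemolysis expressed as % of 2.5% Triton X-100 lysis, with PBS/0.001% acetic acid as 0%.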

[2] = system: Pseudomonas aeruginosa ATCC 27853; settings: ATCC 27853
Outline: (§1)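 Using the CLSI reference method, each strain at approx. 10^6 CFU/mL was exposed to serially diluted peptide in MH-II broth with 0.002% P-80. After 18-20 h at 35° C, the lowest concentration showing no visible growth gave the MIC.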

[3] = system: Escherichia coli 926415; settings: 926415
[4] = system: Klebsiella pneumoniae 968733; settings: 968733
[5] = system: Klebsiella pneumoniae SSI #3010; settings: SSI #3010
Outline: as §1

[6] = system: Acinetobacter baumannii 872842; settings: 872842
[7] = system: Escherichia coli ATCC 25922; settings: ATCC 25922
Outline: as §1

[8] = system: Acinetobacter baumannii DSM 30008; settings: DSM 30008
Outline: as §1

CC(C)C[C@@H]1NC(=O)[C@@H](CC(C)C)NC(=O)[C@H](CCN)NC(=O)[C@@H](NC(=O)[C@H](CCN)NC(=O)[C@@H](NC(=O)[C@H](CCN)NC(=O)[C@H](CCN)NC(=O)[C@@H]2CSSC[C@H](NC(=O)[C@@H](N)Cc3c[nH]c4ccccc34)C(=O)N[C@@H](C(C)C)C(=O)N[C@@H](C)C(=O)N[C@@H](CO)C(=O)NCC(=O)N3CCC[C@H]3C(=O)N[C@@H](CC(C)C)C(=O)N[C@@H](CO)C(=O)N[C@@H](Cc3ccc(O)cc3)C(=O)N2)[C@@H](C)O)CCNC(=O)[C@H]([C@@H](C)O)NC(=O)[C@H](CCN)NC(=O)[C@H](CCN)NC1=O [Ex. 128] (H-WCVASGPLSYC[Dab][Dab]T[Dab][Dab][Dab][dL]L[Dab][Dab]T; disulfide 2-11; lactam 16-C)
Hemolysis at 100 μg/mL [1]: 1% | Pseudomonas aeruginosa ATCC 27853 MIC [2]: 0.5 µg/mL | Escherichia coli 926415 MIC [3]: 0.5 µg/mL | Klebsiella pneumoniae 968733 MIC [4]: 4 µg/mL | Klebsiella pneumoniae SSI #3010 MIC [5]: 0.125 µg/mL | Acinetobacter baumannii 872842 MIC [6]: 0.25 µg/mL | Escherichia coli ATCC 25922 MIC [7]: 0.125 µg/mL | Acinetobacter baumannii DSM 30008 MIC [8]: 0.125 µg/mL

CC(C)C[C@@H]1NC(=O)[C@H](C)NC(=O)[C@H]2C[C@H](O)CN2C(=O)[C@H](CO)NC(=O)[C@H](C)NC(=O)[C@H](C(C)C)NC(=O)[C@@H](NC(=O)[C@@H](N)Cc2c[nH]c3ccccc23)CSSC[C@@H](C(=O)N[C@@H](CCN)C(=O)N[C@@H](CCN)C(=O)N[C@H](C(=O)N[C@@H](CCN)C(=O)N[C@H]2CCNC(=O)[C@H]([C@@H](C)O)NC(=O)[C@H](CCN)NC(=O)[C@H](CCN)NC(=O)[C@H](CC(C)C)NC(=O)[C@@H](CC(C)C)NC(=O)[C@H](CCN)NC2=O)[C@@H](C)O)NC(=O)[C@H](Cc2ccc(O)cc2)NC(=O)[C@H](CO)NC1=O [Ex. 129] (H-WCVAS[dHyp]ALSYC[Dab][Dab]T[Dab][Dab][Dab][dL]L[Dab][Dab]T; disulfide 2-11; lactam 16-C)
Hemolysis at 100 μg/mL [1]: <1% | Pseudomonas aeruginosa ATCC 27853 MIC [2]: 0.125 µg/mL | Escherichia coli 926415 MIC [3]: 0.25 µg/mL | Klebsiella pneumoniae 968733 MIC [4]: 2 µg/mL | Klebsiella pneumoniae SSI #3010 MIC [5]: 0.125 µg/mL | Acinetobacter baumannii 872842 MIC [6]: 0.0625 µg/mL | Escherichia coli ATCC 25922 MIC [7]: 0.0625 µg/mL | Acinetobacter baumannii DSM 30008 MIC [8]: 0.125 µg/mL

CC(C)C[C@@H]1NC(=O)[C@@H](CC(C)C)NC(=O)[C@H](CCN)NC(=O)[C@@H](NC(=O)[C@H](CCN)NC(=O)[C@@H](NC(=O)[C@H](CCN)NC(=O)CNC(=O)[C@@H]2CSSC[C@H](NC(=O)[C@@H](N)Cc3c[nH]c4ccccc34)C(=O)N[C@@H](C(C)C)C(=O)N[C@@H](C)C(=O)N[C@@H](CO)C(=O)N[C@H](CO)C(=O)N3CCC[C@H]3C(=O)N[C@@H](CC(C)C)C(=O)N[C@@H](CO)C(=O)N[C@@H](Cc3ccc(O)cc3)C(=O)N2)[C@@H](C)O)CCNC(=O)[C@H]([C@@H](C)O)NC(=O)[C@H](CCN)NC(=O)[C@H](CCN)NC1=O [Ex. 130] (H-WCVAS[dS]PLSYCG[Dab]T[Dab][Dab][Dab][dL]L[Dab][Dab]T; disulfide 2-11; lactam 16-C)
Hemolysis at 100 μg/mL [1]: <1% | Pseudomonas aeruginosa ATCC 27853 MIC [2]: 0.25 µg/mL | Escherichia coli 926415 MIC [3]: 0.25 µg/mL | Klebsiella pneumoniae 968733 MIC [4]: 0.125 µg/mL | Klebsiella pneumoniae SSI #3010 MIC [5]: 0.0625 µg/mL | Acinetobacter baumannii 872842 MIC [6]: 0.0625 µg/mL | Escherichia coli ATCC 25922 MIC [7]: 0.0625 µg/mL | Acinetobacter baumannii DSM 30008 MIC [8]: 0.0625 µg/mL

CC(C)C[C@@H]1NC(=O)[C@@H](CC(C)C)NC(=O)[C@H](CCN)NC(=O)[C@@H](NC(=O)[C@H](CCN)NC(=O)[C@@H](NC(=O)[C@H](CCN)NC(=O)CNC(=O)[C@@H]2CSSC[C@H](NC(=O)[C@@H](N)Cc3c[nH]c4ccccc34)C(=O)N[C@@H](C(C)C)C(=O)N[C@@H](C)C(=O)N[C@@H](CO)C(=O)N3CCC[C@@H]3C(=O)N3CCC[C@H]3C(=O)N[C@@H](CC(C)C)C(=O)N[C@@H](CO)C(=O)N[C@@H](Cc3ccc(O)cc3)C(=O)N2)[C@@H](C)O)CCNC(=O)[C@H]([C@@H](C)O)NC(=O)[C@H](CCN)NC(=O)[C@H](CCN)NC1=O [Ex. 131] (H-WCVAS[dP]PLSYCG[Dab]T[Dab][Dab][Dab][dL]L[Dab][Dab]T; disulfide 2-11; lactam 16-C)
Hemolysis at 100 μg/mL [1]: <1% | Pseudomonas aeruginosa ATCC 27853 MIC [2]: 0.5 µg/mL | Escherichia coli 926415 MIC [3]: 0.25 µg/mL | Klebsiella pneumoniae 968733 MIC [4]: 0.25 µg/mL | Klebsiella pneumoniae SSI #3010 MIC [5]: 0.125 µg/mL | Acinetobacter baumannii 872842 MIC [6]: 0.125 µg/mL | Escherichia coli ATCC 25922 MIC [7]: 0.0625 µg/mL | Acinetobacter baumannii DSM 30008 MIC [8]: 0.125 µg/mL

CC(C)C[C@@H]1NC(=O)[C@@H](Cc2ccccc2)NC(=O)[C@H](CCN)NC(=O)[C@@H](NC(=O)[C@H](CCN)NC(=O)[C@@H](NC(=O)[C@H](CCN)NC(=O)CNC(=O)[C@@H]2CSSC[C@H](NC(=O)[C@@H](N)Cc3c[nH]c4ccccc34)C(=O)N[C@@H](C(C)C)C(=O)N[C@@H](C)C(=O)N[C@@H](CO)C(=O)N3CCC[C@@H]3C(=O)N3CCC[C@H]3C(=O)N[C@@H](CC3CCCC3)C(=O)N[C@@H](CO)C(=O)N[C@@H](Cc3ccc(O)cc3)C(=O)N2)[C@@H](C)O)CCNC(=O)[C@H]([C@@H](C)O)NC(=O)[C@H](CCN)NC(=O)[C@H](CCN)NC1=O [Ex. 132] (H-WCVAS[dP]P[Ala(cPent)]SYCG[Dab]T[Dab][Dab][Dab][dF]L[Dab][Dab]T; disulfide 2-11; lactam 16-C)
Hemolysis at 100 μg/mL [1]: <1% | Pseudomonas aeruginosa ATCC 27853 MIC [2]: 0.25 µg/mL | Escherichia coli 926415 MIC [3]: 0.1255 µg/mL | Klebsiella pneumoniae 968733 MIC [4]: 0.125 µg/mL | Klebsiella pneumoniae SSI #3010 MIC [5]: 0.125 µg/mL | Acinetobacter baumannii 872842 MIC [6]: 0.0625 µg/mL | Escherichia coli ATCC 25922 MIC [7]: 0.0625 µg/mL | Acinetobacter baumannii DSM 30008 MIC [8]: 0.0625 µg/mL

CC(C)C[C@@H]1NC(=O)[C@@H](CC(C)C)NC(=O)[C@H](CCN)NC(=O)[C@@H](NC(=O)[C@H](CCN)NC(=O)[C@@H](NC(=O)[C@H](CCN)NC(=O)CNC(=O)[C@@H]2CSSC[C@H](NC(=O)[C@H](Cc3c[nH]c4ccccc34)N=C(N(C)C)N(C)C)C(=O)N[C@@H](C(C)C)C(=O)N[C@@H](C)C(=O)N[C@@H](CO)C(=O)N3CCC[C@@H]3C(=O)N3CCC[C@H]3C(=O)N[C@@H](CC(C)C)C(=O)N[C@@H](CO)C(=O)N[C@@H](Cc3ccc(O)cc3)C(=O)N2)[C@@H](C)O)CCNC(=O)[C@H]([C@@H](C)O)NC(=O)[C@H](CCN)NC(=O)[C@H](CCN)NC1=O [Ex. 133] (X2-CVAS[dP]PLSYCG[Dab]T[Dab][Dab][Dab][dL]L[Dab][Dab]T; disulfide 1-10; lactam 15-C)
Hemolysis at 100 μg/mL [1]: <1% | Pseudomonas aeruginosa ATCC 27853 MIC [2]: 1 µg/mL | Escherichia coli 926415 MIC [3]: 4 µg/mL | Klebsiella pneumoniae 968733 MIC [4]: 8 µg/mL | Klebsiella pneumoniae SSI #3010 MIC [5]: 1 µg/mL | Acinetobacter baumannii 872842 MIC [6]: 4 µg/mL | Escherichia coli ATCC 25922 MIC [7]: 0.25 µg/mL | Acinetobacter baumannii DSM 30008 MIC [8]: 1 µg/mL

CC(C)C[C@@H]1NC(=O)[C@@H](CC(C)C)NC(=O)[C@H](CCN)NC(=O)[C@@H](NC(=O)[C@H](CCN)NC(=O)[C@@H](NC(=O)[C@H](CCN)NC(=O)[C@@H](C)NC(=O)[C@@H]2CSSC[C@H](NC(=O)[C@H](Cc3c[nH]c4ccccc34)NC(=N)N)C(=O)N[C@@H](C(C)C)C(=O)N[C@@H](C)C(=O)N[C@@H](CO)C(=O)N3CCC[C@@H]3C(=O)N3CCC[C@H]3C(=O)N[C@@H](CC(C)C)C(=O)N[C@@H](CO)C(=O)N[C@@H](Cc3ccc(O)cc3)C(=O)N2)[C@@H](C)O)CCNC(=O)[C@H]([C@@H](C)O)NC(=O)[C@H](CCN)NC(=O)[C@H](CCN)NC1=O [Ex. 135] (NαAmidinoTrp-CVAS[dP]PLSYC[dA][Dab]T[Dab][Dab][Dab][dL]L[Dab][Dab]T; disulfide 1-10; lactam 15-C)
Hemolysis at 100 μg/mL [1]: 1% | Pseudomonas aeruginosa ATCC 27853 MIC [2]: 0.5 µg/mL | Escherichia coli 926415 MIC [3]: 1 µg/mL | Klebsiella pneumoniae 968733 MIC [4]: 8 µg/mL | Klebsiella pneumoniae SSI #3010 MIC [5]: 0.5 µg/mL | Acinetobacter baumannii 872842 MIC [6]: 0.5 µg/mL | Escherichia coli ATCC 25922 MIC [7]: 0.125 µg/mL | Acinetobacter baumannii DSM 30008 MIC [8]: 0.25 µg/mL

CC(C)C[C@@H]1NC(=O)[C@@H](CC(C)C)NC(=O)[C@H](CCN)NC(=O)[C@@H](NC(=O)[C@H](CCN)NC(=O)[C@@H](CCN)NC(=O)[C@@H](NC(=O)[C@H](CCCN)NC(=O)[C@@H]2CSSC[C@H](NC(=O)[C@@H](N)Cc3c[nH]c4ccccc34)C(=O)N[C@@H](C(C)C)C(=O)NCC(=O)N[C@@H](CO)C(=O)N3CCC[C@@H]3C(=O)N3CCC[C@H]3C(=O)N[C@@H](C(C)C)C(=O)N[C@@H](CN)C(=O)N[C@@H](Cc3ccc(O)cc3)C(=O)N2)[C@@H](C)O)CCNC(=O)[C@H]([C@@H](C)O)NC(=O)[C@H](CCN)NC(=O)[C@H](CCN)NC1=O [Ex. 136] (H-WCVGS[dP]PV[Dap]YC[Orn]T[dDab][Dab][Dab][Dab][dL]L[Dab][Dab]T; disulfide 2-11; lactam 16-C)
Hemolysis at 100 μg/mL [1]: <1% | Pseudomonas aeruginosa ATCC 27853 MIC [2]: 0.25 µg/mL | Escherichia coli 926415 MIC [3]: 0.5 µg/mL | Klebsiella pneumoniae 968733 MIC [4]: 4 µg/mL | Klebsiella pneumoniae SSI #3010 MIC [5]: 1 µg/mL | Acinetobacter baumannii 872842 MIC [6]: 0.25 µg/mL | Escherichia coli ATCC 25922 MIC [7]: 0.5 µg/mL | Acinetobacter baumannii DSM 30008 MIC [8]: 1 µg/mL
